# Values of other authors in US20060148728A1 (priority 2000, published 2006).
# Conditions: in vivo; cited from earlier work
smiles,measurement,value
COc1cc([C@@H]2c3cc4c(cc3[C@@H](O[C@@H]3O[C@@H]5CO[C@@H](C)O[C@H]5[C@H](O)[C@H]3O)[C@H]3COC(=O)[C@H]23)OCO4)cc(OC)c1O [Etoposide],Bioavailability of oral etoposide,40-75%
